Results reported in patent US5723494A, “Derivatives of glutamic and aspartic acids, a method of preparing them, and their use as drugs for enhancing memory and learning” (priority 1993, dated 1998).
“Also recorded” adds a separate entry of the source.

What was measured:
[1] = Acute toxicity (LD50) in the mouse; settings: in vivo
[2] = Memory-enhancement activity in the passive avoidance test in the rat; assay type: in vivo, rat (male Wistar); settings: rat
[3] = Antagonism of the amnesic effect induced by scopolamine in the passive avoidance test in the rat; assay type: in vivo; settings: for % Effect vs controls / Latency (STL): FS + SCOP
Experimental: 4) Antagonism of the amnesic effect induced by scopolamine in the "passive avoidance" test in the rat.
The shuttle box equipment was used for passive avoidance as described in Experiment 2 with the following modifications: the compounds (or physiological solutions for the control group) were administered intraperitoneally (IP) 45 min before the training, whereas scopolamine (SCOP) was administered 30 min before the training. The foot shock (FS) consisted of a 0.2 mA shock of 5 sec duration.
The retest to determine memory was executed 24 h after the training. In each individual experiment, the following groups were used: a control group (-FS), a control group (+FS), a control group (FS+SCOP), 3 treatment groups with different doses of the product under test (FS+SCOP).

[4] = Antidepressant activity in the behavioural despair test in the mouse; assay type: in vivo, mouse (male CD1)
[5] = tested on: excitor amino-acid receptors of cortical membranes ("forebrain") of rats; assay: Inhibition of the specific binding of [3H]-glutamate to rat forebrain membranes
Method in brief: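 Forebrain membranes (cortex plus hippocampus, striatum removed) in Tris-HCl pH 7.1 incubated with ³H-L-glutamate and test compound for 20 min at 37 °C. Filtration on glass-fibre filters, scintillation counting; specific binding = total minus binding with 3.6 mM cold L-glutamate.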

## CC1(C)CCC(NC(=O)[C@@H](N)CCC(=O)O)CC1 [Compound 23, 1-(4,4-dimethylcyclohexyl)-L-isoglutamine[4-amino-5-(4',4'-dimethylcyclohexylamine)-5-oxopentanoic acid (S)]]
[1]; IV
  LD50: 290 mg/kg
[1]; po, OS
  LD50: 1300 mg/kg
[2]; 96 h, 0.1 mg/kg IP, retest on the 4th day, 6 treatments, read-out: % variation vs controls (FS) in step through latency
  change in vivo at 0.1 mg/kg: 11%
[2]; 96 h, 1 mg/kg IP, retest on the 4th day, 6 treatments, read-out: % variation vs controls (FS) in step through latency
  change in vivo at 1 mg/kg: 19%
[2]; 96 h, 10 mg/kg IP, retest on the 4th day, 6 treatments, read-out: % variation vs controls (FS) in step through latency
  change in vivo at 10 mg/kg: 43%
[2]; IP, read-out: ED30 (dose increasing the latency time (STL) by 30%)
  ED30: 2.3 mg/kg
[2]; IP, retest on the 4th day
  Activity in increasing the avoidance time (in words): considerable activity in increasing the avoidance time
[3]; 0.1 mg/kg IP
  % Effect vs controls: 7.1%
  Latency (STL): 60.8 s
[3]; 1 mg/kg IP
  % Effect vs controls: 38.0%
  Latency (STL): 72.0 s
[3]; 10 mg/kg IP
  % Effect vs controls: 55.8%
  Latency (STL): 78.6 s
[3]; IP, rat, retest 24 h after training, read-out: ID50 (dose antagonizing the amnesic effect of scopolamine by 50%)
  ED50: 4.7 mg/kg
[3]; rat, IP
  Antagonism of the amnesic effect of scopolamine (in words): antagonizes the amnesic effect induced by scopolamine in a dose-dependent manner; also recorded: comparable, in this model, with that of tacrine
[4]; 5 min, 3 mg/kg IP, 5 minutes, read-out: Decrease in immobility (as %) vs the controls
  inhibition in vivo at 3 mg/kg: 14%
[4]; 5 min, 10 mg/kg IP, 5 minutes, read-out: Decrease in immobility (as %) vs the controls
  inhibition in vivo at 10 mg/kg: 31%
[4]; 5 min, 30 mg/kg IP, 5 minutes, read-out: Decrease in immobility (as %) vs the controls
  inhibition in vivo at 30 mg/kg: 94%
[4]; IP
  Antidepressant activity (in words): antidepressant effect of the same order of magnitude as the comparison drug used, amitriptyline
[4]; IP, read-out: ED50 (dose antagonising immobility time by 50%)
  ED50: 11.1 mg/kg
[5]; rat cortical membranes
  Activity in inhibiting the binding of glutamate (in words): considerable activity in inhibiting the binding of the glutamate
[5]; rat forebrain membranes, 20 min, 37° C., pH 7.1
  IC50: 13.8 µM
